Measurements taken from patent US12331035B2, “Bicyclic compound and use thereof” (SK BIOPHARMACEUTICALS CO., LTD., priority 2019, dated 2025).
pIC50: −log10 of the molar value.

Target: T1, PRMT5-MEP50 enzyme complex (Homo sapiens, UniProt O14744)
T1 construct: purchased BPS Bioscience (USA) 51045
Test: In vitro PRMT5 enzyme activity assay (methylation of histone H4 arginine H4R3, ELISA absorbance at 450 nm)
Format: biochemical
Conditions: S-adenosylmethionine, histone H4 peptide, 2 hours at room temperature, 8 points 10 μM to 0.128 nM
Procedure, shortened: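 Human PRMT5-MEP50 (5 μg/mL working stock) with 2 μM SAM stock on histone H4 (1-20) peptide-coated plates, compound 8-point 1:5 series from 10 μM, 2 h at room temperature. H4R3 methylation detected by antibody/HRP ELISA, absorbance 450 nm; IC50 calculated.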

T1 sequence (O14744 2-637 limits assumed): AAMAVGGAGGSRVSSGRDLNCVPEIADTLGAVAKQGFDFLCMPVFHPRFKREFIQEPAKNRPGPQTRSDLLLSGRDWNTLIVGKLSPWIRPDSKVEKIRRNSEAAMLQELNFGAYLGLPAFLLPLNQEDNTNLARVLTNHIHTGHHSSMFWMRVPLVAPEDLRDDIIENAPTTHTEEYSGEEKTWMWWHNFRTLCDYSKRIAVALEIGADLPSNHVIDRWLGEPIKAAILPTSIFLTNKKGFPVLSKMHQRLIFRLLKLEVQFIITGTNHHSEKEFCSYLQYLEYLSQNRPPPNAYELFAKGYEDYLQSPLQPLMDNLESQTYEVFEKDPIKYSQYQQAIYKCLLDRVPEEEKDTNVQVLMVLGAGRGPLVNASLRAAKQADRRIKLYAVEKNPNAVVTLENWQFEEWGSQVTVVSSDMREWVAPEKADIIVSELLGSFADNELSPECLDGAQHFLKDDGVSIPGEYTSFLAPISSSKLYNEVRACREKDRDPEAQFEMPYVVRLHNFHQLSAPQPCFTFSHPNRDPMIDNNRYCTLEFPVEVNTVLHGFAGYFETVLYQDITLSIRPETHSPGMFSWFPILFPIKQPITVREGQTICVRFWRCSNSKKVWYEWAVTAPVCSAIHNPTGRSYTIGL
T1 sequence (Q9BQA1 2-342 partner limits assumed): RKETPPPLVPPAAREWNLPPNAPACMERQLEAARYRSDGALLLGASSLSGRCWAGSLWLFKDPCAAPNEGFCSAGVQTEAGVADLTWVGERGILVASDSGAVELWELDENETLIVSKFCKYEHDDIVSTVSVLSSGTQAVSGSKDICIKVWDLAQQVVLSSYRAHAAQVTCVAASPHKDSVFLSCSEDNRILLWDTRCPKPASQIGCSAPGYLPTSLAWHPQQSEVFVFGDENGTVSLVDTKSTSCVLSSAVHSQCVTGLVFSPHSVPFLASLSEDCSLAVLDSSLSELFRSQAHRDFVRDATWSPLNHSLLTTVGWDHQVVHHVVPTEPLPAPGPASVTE

Row | SMILES | pIC50
1 | O=C1c2ccc(NCc3cccnc3)cc2CCN1C[C@H](O)CN1CCc2ccccc2C1 [Example 22, 2-[(2R)-3-(3,4-dihydro-1H-isoquinolin-2-yl)-2-hydroxy-propyl]-6-(3-pyridylmethylamino)-3,4-dihydroisoquinolin-1-one] | 5.00 to 6.00
2 | O=C1c2ccc(NCC3CCOCC3)cc2CCN1C[C@H](O)CN1CCc2ccccc2C1 [Example 23, 2-[(2R)-3-(3,4-dihydro-1H-isoquinolin-2-yl)-2-hydroxy-propyl]-6-(tetrahydropyran-4-ylmethylamino)-3,4-dihydroisoquinolin-1-one] | 7.00 to 9.00
3 | O=C1c2ccc(N3CCC(O)CC3)cc2CCN1C[C@H](O)CN1CCc2ccccc2C1 [Example 37, 2-[(2R)-3-(3,4-dihydro-1H-isoquinolin-2-yl)-2-hydroxy-propyl]-6-(4-hydroxy-1-piperidyl)-3,4-dihydroisoquinolin-1-one] | 7.00 to 9.00
4 | O=C1c2ccc(N3CC(CO)C3)cc2CCN1C[C@H](O)CN1CCc2ccccc2C1 [Example 46, 2-[(2R)-3-(3,4-dihydro-1H-isoquinolin-2-yl)-2-hydroxy-propyl]-6-[3-(hydroxymethyl)azetidin-1-yl]-3,4-dihydroisoquinolin-1-one] | 6.00 to 7.00
5 | CN(c1ccc2c(c1)CCN(C[C@H](O)CN1CCc3ccccc3C1)C2=O)C1CCCCC1 [Example 11, 6-[cyclohexyl(methyl)amino]-2-[(2R)-3-(3,4-dihydro-1H-isoquinolin-2-yl)-2-hydroxy-propyl]-3,4-dihydroisoquinolin-1-one] | 7.00 to 9.00
6 | O=C1c2ccc(NC3CCOCC3)cc2CCN1C[C@H](O)CN1CCc2ccccc2C1 [Example 5, 2-[(2R)-3-(3,4-dihydro-1H-isoquinolin-2-yl)-2-hydroxy-propyl]-6-(tetrahydropyran-4-ylamino)-3,4-dihydroisoquinolin-1-one] | 7.00 to 9.00
7 | O=C1c2ccc(-c3ccnc(F)c3)cc2CCN1C[C@H](O)CN1CCc2ccccc2C1 [Example 12, 2-[(2R)-3-(3,4-dihydro-1H-isoquinolin-2-yl)-2-hydroxy-propyl]-6-(2-fluoro-4-pyridyl)-3,4-dihydroisoquinolin-1-one] | 7.00 to 9.00
8 | CN1CCN(c2ccc3c(c2)CCN(C[C@H](O)CN2CCc4ccccc4C2)C3=O)CC1 [Example 17, 2-[(2R)-3-(3,4-dihydro-1H-isoquinolin-2-yl)-2-hydroxy-propyl]-6-(4-methylpiperazin-1-yl)-3,4-dihydroisoquinolin-1-one] | 7.00 to 9.00
9 | O=C1c2ccc(N3CCCC3=O)cc2CCN1C[C@H](O)CN1CCc2ccccc2C1 [Example 18, 2-[(2R)-3-(3,4-dihydro-1H-isoquinolin-2-yl)-2-hydroxy-propyl]-6-(2-oxopyrrolidin-1-yl)-3,4-dihydroisoquinolin-1-one] | 5.00 to 6.00
10 | O=C1c2ccc(N3CCC3=O)cc2CCN1C[C@H](O)CN1CCc2ccccc2C1 [Example 20, 2-[(2R)-3-(3,4-dihydro-1H-isoquinolin-2-yl)-2-hydroxy-propyl]-6-(2-oxoazetidin-1-yl)-3,4-dihydroisoquinolin-1-one] | 6.00 to 7.00
11 | O=C1c2ccc(Br)cc2CCN1C[C@H](O)CN1CCc2ccccc2C1 [Example 1, 6-bromo-2-[(2R)-3-(3,4-dihydro-1H-isoquinolin-2-yl)-2-hydroxy-propyl]-3,4-dihydroisoquinolin-1-one] | 7.00 to 9.00
12 | CC(C)N1CCN(c2ccc3c(c2)CCN(C[C@H](O)CN2CCc4ccccc4C2)C3=O)CC1 [Example 64, [(2R)-3-(3,4-dihydro-1H-isoquinolin-2-yl)-2-hydroxy-propyl]-6-(4-isopropylpiperazin-1-yl)-3,4-dihydroisoquinolin-1-one] | 7.00 to 9.00
13 | O=C1c2ccc(NCc3ccccc3)cc2CCN1C[C@H](O)CN1CCc2ccccc2C1 [Example 7, 6-(benzylamino)-2-[(2R)-3-(3,4-dihydro-1H-isoquinolin-2-yl)-2-hydroxy-propyl]-3,4-dihydroisoquinolin-1-one] | 7.00 to 9.00

Other lines, results leading:

Row | pIC50 | SMILES
14 | 7.00 to 9.00 | O=C1c2ccc(OCCN3CCOCC3)cc2CCN1C[C@H](O)CN1CCc2ccccc2C1 [Example 113, 2-[(2R)-3-(3,4-dihydro-1H-isoquinolin-2-yl)-2-hydroxy-propyl]-6-(2-morpholinoethoxy)-3,4-dihydroisoquinolin-1-one]
15 | 6.00 to 7.00 | CC(=O)N1CCCC(Nc2ccc3c(c2)CCN(C[C@H](O)CN2CCc4ccccc4C2)C3=O)CC1 (stereo partly drawn) [Example 98, 6-[(1-acetylazepan-4-yl)amino]-2-[(2R)-3-(3,4-dihydro-1H-isoquinolin-2-yl)-2-hydroxy-propyl]-3,4-dihydroisoquinolin-1-one]
16 | 6.00 to 7.00 | CN1CCN(c2ccc3c(c2)CCN(C[C@H](O)CN2CCc4ccccc4C2)C3=O)CCC1=O [Example 84, 2-[(2R)-3-(3,4-dihydro-1H-isoquinolin-2-yl)-2-hydroxy-propyl]-6-(4-methyl-5-oxo-1,4-diazepan-1-yl)-3,4-dihydroisoquinolin-1-one]
17 | 7.00 to 9.00 | O=C1c2ccc(OC3CCN(C4COC4)CC3)cc2CCN1C[C@H](O)CN1CCc2ccccc2C1 [Example 136, 2-[(2R)-3-(3,4-dihydro-1H-isoquinolin-2-yl)-2-hydroxy-propyl]-6-[[1-(oxetan-3-yl)-4-piperidyl]oxy]-3,4-dihydroisoquinolin-1-one]
18 | 6.00 to 7.00 | COCCN1CCN(c2ccc3c(c2)CCN(C[C@H](O)CN2CCc4ccccc4C2)C3=O)CC1 [Example 109, 2-[(2R)-3-(3,4-dihydro-1H-isoquinolin-2-yl)-2-hydroxy-propyl]-6-[4-(2-methoxyethyl)piperazin-1-yl]-3,4-dihydroisoquinolin-1-one]
19 | 6.00 to 7.00 | CC1(C)CN(C[C@H](O)CN2CCc3ccccc3C2)C(=O)c2ccc(N3CCOCC3)cc21 [Example 112, 2-[(2R)-3-(3,4-dihydro-1H-isoquinolin-2-yl)-2-hydroxy-propyl]-4,4-dimethyl-6-morpholino-3H-isoquinolin-1-one]
20 | 6.00 to 7.00 | CC(=O)N1CCN(c2ccc3c(c2)CCN(C[C@H](O)CN2CCc4ccccc4C2)C3=O)C(=O)C1 [Example 86, 6-(4-acetyl-2-oxo-piperazin-1-yl)-2-[(2R)-3-(3,4-dihydro-1H-isoquinolin-2-yl)-2-hydroxy-propyl]-3,4-dihydroisoquinolin-1-one]
21 | 6.00 to 7.00 | O=C1c2ccc(N3CCC(N4CCOCC4)CC3)cc2CCN1C[C@H](O)CN1CCc2ccccc2C1 [Example 108, 2-[(2R)-3-(3,4-dihydro-1H-isoquinolin-2-yl)-2-hydroxy-propyl]-6-(4-morpholino-1-piperidyl)-3,4-dihydroisoquinolin-1-one]
22 | 5.00 to 6.00 | O=C1c2ccc(N3CCOCC3)cc2C(F)(F)CN1C[C@H](O)CN1CCc2ccccc2C1 [Example 132, 2-[(2R)-3-(3,4-dihydro-1H-isoquinolin-2-yl)-2-hydroxy-propyl]-4,4-difluoro-6-morpholino-3H-isoquinolin-1-one]
23 | 7.00 to 9.00 | CC(=O)N1CCN(c2ccc3c(c2)CCN(C[C@H](O)CN2CCc4ccccc4C2)C3=O)CC12CC2 [Example 82, 6-(4-acetyl-4,7-diazaspiro[2.5]octan-7-yl)-2-[(2R)-3-(3,4-dihydro-1H-isoquinolin-2-yl)-2-hydroxy-propyl]-3,4-dihydroisoquinolin-1-one]
24 | 6.00 to 7.00 | O=C1c2ccc(N3CC4CC3CN4)cc2CCN1C[C@H](O)CN1CCc2ccccc2C1 (stereo partly drawn) [Example 76, 6-(2,5-diazabicyclo[2.2.1]heptan-2-yl)-2-[(2R)-3-(3,4-dihydro-1H-isoquinolin-2-yl)-2-hydroxy-propyl]-3,4-dihydroisoquinolin-1-one]
